Where two headings read alike, the source gives them in different places.
Tests used:
Format in all cases: cell-based
CRL cell line = assay: ATP viability assay; conditions: Homo sapiens, read-out: LC50
Protocol: HL-60 (ATCC CCL-240), K562 (ATCC CCL-243), CCRF-CEM (ATCC CRM-CCL-119), and RL (ATCC CRL-2261) leukemia cell lines were obtained from the American Type Culture Collection (ATCC), Middlesex. HL-60 and K562 cell lines are deoxynucleotidyl transferase-negative (TdT^–ve), whereas CCRF-CEM cell line is TdT^+ve. They were cultured in RPMI-1640 medium (Sigma-Aldrich, U.K.), which were supplemented with 10% fetal bovine serum (FBS) (PAA Laboratories), 1% amphotericin B (5.5 mL), and 1% penicillin/streptomycin (5.5 mL) (PAA Laboratories) and grown in flasks at 37 °C in an incubator with 5% CO2. For the studies with inhibitors, the cells were treated with 10 μM nitrobenzylthioinosine (NBTI, hENT inhibitor) or 1 μM EHNA (EHNA hydrochloride) or A-134974 (A-134974 dihydrochloride hydrate) and left for 5 min before adding the drug. The cells were then incubated for 2 h at 37 °C with 5% CO2.
The amount of ATP was used as a measurement of cell number and cell viability. ATP ViaLightTM plus assay kit (Lonza: Product No. LT07-121) to detect ATP in cells treated in luminescence compatible 96-well plates (initial concentration of cells was 1 × 10^4 cells/well) with Cordycepin and ProTides at concentrations of 0, 0.1, 0.5, 1, 5, and 10 μM, followed by incubation for 72 h at 37 °C in an incubator with 5% CO2. For inhibitor studies, 10 μM NBTI or 1 μM EHNA or A-134974 was added and left for 5 min before adding the drugs. After incubation, 50 μL of cell lysis reagent was added to the 96-well plates to release the intracellular ATP, followed by 100 μL of ATP monitoring reagent (AMR). The luminescent values of each well were determined using FLUOstar OPTIMA microplate reader (BMG Labtech), which converted ATP into light using luciferase enzyme. Therefore, the amount of luminescence produced was directly proportional to the amount of ATP.

BxPC-3 = assay: cells; conditions: for MI%: BxPC-3, maximum inhibitory effect over concentration range; for CC50: Homo sapiens, BXPC-3, 72 h, read-out: LC50
Protocol: (§1) The assay was contracted and carried out by WuXi AppTec (Shanghai) Co., Ltd. The tumor cell lines CCRF-CEM, HL-60, KG-1, MOLT-4, K562, MV4-11, THP-1, HEL92.1.7, NCI-H929, RPMI-8226, Jurkat, Z138, RL, HS445, HepG2, MCF-7, Bx-PC-3, HT29, MIA PaCa-2, and SW620 were seeded at cell densities of […] 10^3 cells/well in a 96-well plate the day before drug incubation. Then, the plates were incubated for 72 h with the different concentrations of compound to be tested. After the incubation period, 50 μL of MTS was added and the tumor cells were incubated for 4 h at 37 °C. The data were read and collected by a Spectra Max 340 absorbance microplate reader. The compounds were tested in duplicate with nine serial concentrations (3.16-fold titrations with 198 μM as the highest concentration), and the data were analyzed by XLfit software.

MV4-11 = assay: cells; conditions: for CC50: Homo sapiens, MV4-11, 72 h, read-out: LC50; for MI%: MV4-11, maximum inhibitory effect over concentration range
Protocol: as §1

RPMI-8226 = assay: cells; conditions: for CC50: Homo sapiens, RPMI-8226, 72 h, read-out: LC50; for MI%: RPMI-8226, maximum inhibitory effect over concentration range
Protocol: as §1

THP-1 = assay: cells; conditions: for CC50: Homo sapiens, THP-1, 72 h, read-out: LC50; for MI%: THP-1, maximum inhibitory effect over concentration range
Protocol: as §1

SW620 = assay: cells; conditions: for CC50: Homo sapiens, SW-620, 72 h, read-out: LC50; for MI%: SW620, maximum inhibitory effect over concentration range
Protocol: as §1

MOLT-4 = assay: cells; conditions: Homo sapiens, MOLT-4, 72 h; for CC50: read-out: LC50; for Emax: read-out: MI%
Protocol: as §1

Z138 = assay: cells; conditions: for CC50: Homo sapiens, Z-138, 72 h, read-out: LC50; for MI%: Z138, maximum inhibitory effect over concentration range
Protocol: as §1

HS445 = assay: cells; conditions: for MI%: HS445, maximum inhibitory effect over concentration range; for CC50: Homo sapiens, Hs 445, 72 h, read-out: LC50
Protocol: as §1

HT29 = assay: cells; conditions: for MI%: HT29, maximum inhibitory effect over concentration range; for CC50: Homo sapiens, HT-29, 72 h, read-out: lC50
Protocol: as §1

HL-60 = assay: cells; conditions: Homo sapiens, HL-60, 72 h; for CC50: read-out: LC50; for Emax: read-out: MI%
Protocol: as §1

MCF-7 = assay: cells; conditions: Homo sapiens, MCF7, 72 h; for CC50: read-out: LC50; for Emax: read-out: MI%
Protocol: as §1

HEL92.1.7 = assay: cells; conditions: for MI%: HEL92.1.7, maximum inhibitory effect over concentration range; for CC50: Homo sapiens, HEL 92.1.7, 72 h, read-out: LC50
Protocol: as §1

CCRF-CEM = assay: cells; conditions: Homo sapiens, 72 h; for CC50: read-out: LC50; for Emax: read-out: MI%
Protocol: as §1

K562 = assay: cells; conditions: Homo sapiens, K562, 72 h; for CC50: read-out: LC50; for Emax: read-out: MI%
Protocol: as §1

RL = assay: cells; conditions: for CC50: Homo sapiens, 72 h, read-out: LC50; for MI%: maximum inhibitory effect over concentration range
Protocol: as §1

HepG2 = assay: cells; conditions: Homo sapiens, HepG2, 72 h; for CC50: read-out: LC50; for Emax: read-out: MI%
Protocol: as §1

KG-1 = assay: cells; conditions: Homo sapiens, KG-1, 72 h, read-out: LC50
Protocol: as §1

Jurkat = assay: cells; conditions: for CC50: Homo sapiens, 72 h, read-out: LC50; for CC50 / MI%: Jurkat; for MI%: maximum inhibitory effect over concentration range
Protocol: as §1

MIA PaCa-2 = assay: cells; conditions: for CC50: Homo sapiens, MIA PaCa-2, 72 h, read-out: LC50; for MI%: MIA PaCa-2, maximum inhibitory effect over concentration range
Protocol: as §1

NCI-H929 = assay: cells; conditions: for CC50: Homo sapiens, NCI-H929, 72 h, read-out: LC50; for MI%: NCI-H929, maximum inhibitory effect over concentration range
Protocol: as §1

`C[C@H](NP(=O)(OC[C@@H]1C[C@@H](O)[C@H](n2cnc3c(N)ncnc32)O1)Oc1ccccc1)C(=O)OCc1ccccc1` (stereo partly drawn) [Compound 7a, (Rp)- and (Sp)-3′-Deoxyadenosine 5′-O-phenyl-(benzoxy-L-alaninyl)-phosphate] showed a CC50 (CRL cell line; 72 h) of 2.1 µM, a CC50 (CRL cell line) of 3.6 µM and an MI% (BxPC-3) of 81%. It also gave a CC50 (BxPC-3) of 23.6 µM, a CC50 (MV4-11) of 2.1 µM and an MI% (MV4-11) of 99%. It also gave a CC50 (RPMI-8226) of 14.7 µM, an MI% (RPMI-8226) of 96% and a CC50 (THP-1) of 65.5 µM. It also gave an MI% (THP-1) of 74%, a CC50 (SW620) of 24.9 µM and an MI% (SW620) of 85%. For the same molecule, the CC50 (MOLT-4) was 0.51 µM, the Emax (MOLT-4) was 98% and the CC50 (Z138) was 27 µM. It also gave an MI% (Z138) of 95%, an MI% (HS445) of 98% and a CC50 (HS445) of 30.5 µM. The MI% (HT29) was 93%, the CC50 (HT29) was 13.4 µM and the CC50 (HL-60) was 17.8 µM. It also gave an Emax (HL-60) of 97%, a CC50 (MCF-7) of 3.07 µM and an Emax (MCF-7) of 94%. It also gave an MI% (HEL92.1.7) of 100%, a CC50 (HEL92.1.7) of 8.07 µM and a CC50 (CCRF-CEM) of 2.36 µM. It also gave an Emax (CCRF-CEM) of 100%, a CC50 (K562) of 6.1 µM and an Emax (K562) of 92%. The CC50 (RL) was 3 µM, the MI% (RL) was 93% and the CC50 (HepG2) was 18.7 µM. For the same molecule, the Emax (HepG2) was 76%, the CC50 (KG-1) was 17.4 µM and the CC50 (Jurkat) was 1.44 µM. The “fold more active than 3′-dA” value (Jurkat; Jurkat cell line, from LC50) was “approximately 200 fold”, the MI% (Jurkat) was 100% and the CC50 (MIA PaCa-2) was 6.85 µM. For the same molecule, the MI% (MIA PaCa-2) was 96%, the CC50 (NCI-H929) was 6.07 µM and the MI% (NCI-H929) was 100%.
Work on `CCOC(=O)CCc1ccccc1OP(=O)(N[C@@H](C)C(=O)OCc1ccccc1)OC[C@@H]1C[C@@H](O)[C@H](n2cnc3c(N)ncnc32)O1` (stereo partly shown) [Compound 7e] yielded a CC50 (CRL cell line; 72 h) of 3.4 µM, an MI% (BxPC-3) of 78% and a CC50 (BxPC-3) of 60.9 µM. It also gave a CC50 (MV4-11) of 3.27 µM, an MI% (MV4-11) of 100% and a CC50 (RPMI-8226) of 31.1 µM. For the same molecule, the MI% (RPMI-8226) was 106%, the CC50 (THP-1) was 36.7 µM and the MI% (THP-1) was 100%. For the same molecule, the CC50 (SW620) was 43.4 µM, the MI% (SW620) was 90% and the CC50 (MOLT-4) was 12.6 µM. The Emax (MOLT-4) was 97%, the CC50 (Z138) was 68.2 µM and the MI% (Z138) was 76%. It also gave an MI% (HS445) of 92%, a CC50 (HS445) of 42.7 µM and an MI% (HT29) of 89%. For the same molecule, the CC50 (HT29) was 25.2 µM, the CC50 (HL-60) was 78.5 µM and the Emax (HL-60) was 74%. It also gave a CC50 (MCF-7) of 15.8 µM, an Emax (MCF-7) of 78% and an MI% (HEL92.1.7) of 99%. The CC50 (HEL92.1.7) was 14.5 µM, the CC50 (CCRF-CEM) was 40.1 µM and the Emax (CCRF-CEM) was 90%. The CC50 (K562) was 175 µM, the Emax (K562) was 61% and the CC50 (RL) was 7.26 µM. For the same molecule, the MI% (RL) was 90%, the CC50 (HepG2) was 96.1 µM and the Emax (HepG2) was 59%. For the same molecule, the CC50 (KG-1) was 102 µM, the CC50 (Jurkat) was 4.75 µM and the MI% (Jurkat) was 100%. The CC50 (MIA PaCa-2) was 12.1 µM, the MI% (MIA PaCa-2) was 101% and the CC50 (NCI-H929) was 7.57 µM. It also gave an MI% (NCI-H929) of 100%.

From PMC9743095 (Journal of Medicinal Chemistry, 2022)
